Results reported in patent publication US10543183B2, “Treatment and diagnosis of melanoma” (The Rockefeller University, priority 2012, dated 2020).
Structures can show the parent of a compound that is named as a salt.

Experiments:
[1] = system: ApoE promoter fused to ME.1 or ME.2 in MeWo cells; experiment: ApoE promoter activity assay (luciferase reporter); type: cell-based, human; conditions: 1 μM, 24 hours
Excerpt: The ApoE promoter, consisting of a sequence spanning 980 base pairs upstream and 93 base pairs downstream of the ApoE gene, was cloned into a pGL3-Basic vector (E1751, Promega Corporation, Madison, Wis.) upstream of the firefly luciferase gene using NheI and SacI restriction enzymes. Then, multi-enhancer elements 1 (ME.1) and 2 (ME.2) were cloned directly upstream of the ApoE promoter using MluI and […] restriction enzymes. To assess ApoE promoter- and ME.1/ME.2-driven transcriptional activation by LXR agonists, 5×10^4 MeWo cells were seeded into a 24-well plate. The following day, 100 ng of pGL3-ME.1/ME.2-ApoE promoter construct and 2 ng of pRL-CMV renilla luciferase construct (E2261, Promega) were co-transfected into cells in the presence of DMSO, GW3965, or T0901317 at 1 μM, each condition in quadruplicate. To assess transcriptional activation by LXRα or LXRβ, 5×10^4 MeWo cells expressing a control shRNA or shRNA targeting LXRα or LXRβ were seeded into a 24-well plate. […] After 24 hours, cells were lysed, and cell lysate was analyzed for firefly and renilla luciferase activity using the Dual Luciferase Assay System (E1960, Promega) and a Bio-Tek Synergy NEO Microplate Reader. Firefly luciferase signal was normalized to renilla luciferase signal and all data are expressed relative to the luciferase activity ratio measured in the DMSO-treated control cells.

[2] = system: MeWo, SK-Mel-2, SK-Mel-334.2, SK-Mel-239 human melanoma cells; experiment: subcutaneous human melanoma tumor growth in immunocompromised mice; type: in vivo, mouse
[3] = system: ApoE expression in human melanoma cells; experiment: ApoE mRNA expression by qRT-PCR in melanoma cells; type: cell-based
Procedure: Total RNA was extracted from various cell lines using the miRvana kit (AM1560, Applied Biosystems, Austin, Tex.). The expression levels of mature miRNAs were quantified using the Taqman miRNA expression assay (4427975-0002228, Applied Biosystems). RNU44 was used as an endogenous control for normalization. For mRNA expression analyses, 600 ng of total RNA was reverse transcribed using the cDNA First-Strand Synthesis Kit (18080-051, Invitrogen), and roughly 200 ng of the resulting cDNA was then mixed with SYBR green PCR Master Mix (4309155, Applied Biosystems) and the appropriate primers. Each reaction was performed in quadruplicate, and mRNA expression was quantified by performing real-time PCR amplification using an ABI Prism 7900HT Real-Time PCR System (Applied Biosystems). GAPDH was used as an endogenous control for normalization. The following primers were used: […]
RNA was extracted from whole cell lysates using the Total RNA Purification Kit (17200, Norgen, Thorold, Canada). 600 ng of total RNA was then reverse transcribed into cDNA using the cDNA First-Strand Synthesis Kit (18080-051, Invitrogen), and quantitative real-time PCR amplification was performed as previously described (Pencheva et al., 2012) using an ABI Prism 7900HT Real-Time PCR System (Applied Biosystems, Austin, Tex.). Each PCR reaction was carried out in quadruplicates. Gene expression was normalized to GAPDH, which was used as an endogenous control.
For every sample, 600 ng of RNA was reverse transcribed into cDNA using the cDNA First-Strand Synthesis kit (Invitrogen). Approximately 200 ng of cDNA was mixed with SYBR® green PCR Master Mix and the corresponding forward and reverse primers specific for detection of human ApoE. Each reaction was carried out in quadruplicates, and ApoE mRNA expression levels were measured by quantitative real-time PCR amplification using an ABI Prism 7900HT Real-Time PCR System (Applied Biosystems). The relative ApoE expression was determined using the ΔΔCt method. GAPDH was used as an endogenous control for normalization purposes.

[4] = system: ApoE expression in systemic tissues; experiment: systemic ApoE expression in mouse tissues (western blot, qRT-PCR); type: in vivo; conditions: 10 days; for ApoE protein expression in systemic adipose, lung, and brain tissues: chow 20 mg/kg; for ApoE transcript levels in circulating white blood cells: diet 20 mg/kg
Procedure: Mouse lung and brain tissue samples were homogenized on ice in RIPA buffer (Sigma-Aldrich) supplemented with protease inhibitors (Roche). Mouse adipose tissue was homogenized on ice in TNET buffer (1.5 mM Tris pH 7.5, 150 mM NaCl, 2 mM EDTA 1% triton, protease inhibitors). Total protein lysate (2 μg) was separated by SDS-PAGE, transferred to PVDF membrane, and blotted with an anti-mouse ApoE (ab20874, Abcam) and anti-tubulin α/β (2148, Cell Signaling) antibodies. RNA was extracted from whole cell lysates using the Total RNA Purification Kit (17200, Norgen, Thorold, Canada). 600 ng of total RNA was then reverse transcribed into cDNA using the cDNA First-Strand Synthesis Kit (18080-051, Invitrogen), and quantitative real-time PCR amplification was performed as previously described (Pencheva et al., 2012) using an ABI Prism 7900HT Real-Time PCR System (Applied Biosystems, Austin, Tex.). Each PCR reaction was carried out in quadruplicates. Gene expression was normalized to GAPDH, which was used as an endogenous control.

[5] = system: extracellular ApoE protein from melanoma cells; experiment: ApoE ELISA in conditioned media; type: cell-based, human; conditions: MeWo cells, 1 μM, 72 hours
Procedure: Extracellular ApoE levels in serum-free conditioned media from melanoma cells treated with DMSO, GW3965, or T0901317 (1 μM each) were quantified using the ApoE ELISA kit (Innovative Research) at 72 hours following treatment.

## O=C(O)Cc1cccc(OCCCN(Cc2cccc(C(F)(F)F)c2Cl)CC(c2ccccc2)c2ccccc2)c1 [GW3965 2, 3-[3-[N-(2-Chloro-3-trifluoromethylbenzyl)-(2,2-diphenylethyl)amino]propyloxy] phenylacetic acid hydrochloride]
[1]
  activity of luciferase reporter containing the ApoE promoter fused to ME.1 or ME.2: enhance
[2]; B16F10, MeWo, SK-Mel-334.2 tumors, chow 100 mg/kg
  overall survival time of tumor-bearing mice: substantially prolonged
[2]; diet 100 mg/kg
  suppression of growth of SK-Mel-239 vemurafenib-resistant line: 72%
  survival of mice bearing vemurafenib-resistant melanoma burden: significantly prolonged
[2]; oral administration
  tumor growth inhibition, MeWo: 70%
  tumor growth inhibition, SK-Mel-2: 49%
  tumor growth inhibition, SK-Mel-334.2: 73%
[2]; oral, diet 100 mg/kg
  growth of in vivo-derived DTIC-resistant MeWo tumors: strongly inhibited
[3]
  potency of ApoE expression induction in vitro: potently induce
[3]; parental MeWo cells, 48 hours
  expression of ApoE: increased expression
[4]
  ApoE protein expression in systemic adipose, lung, and brain tissues: significantly elevated
  ApoE transcript levels in circulating white blood cells: upregulated
[5]
  levels of secreted ApoE protein: elevated levels

## O=S(=O)(c1ccccc1)N(CC(F)(F)F)c1ccc(C(O)(C(F)(F)F)C(F)(F)F)cc1 [T0901317 1]
[1]
  activity of luciferase reporter containing the ApoE promoter fused to ME.1 or ME.2: enhance
[3]
  potency of ApoE expression induction in vitro: potently induce
[4]
  ApoE protein expression in systemic adipose, lung, and brain tissues: significantly elevated
  ApoE transcript levels in circulating white blood cells: upregulated
[5]
  levels of secreted ApoE protein: elevated levels
